According to US8440637B2, “Combination treatment for the treatment of hepatitis C virus infection” (priority 2007, dated 2013):
Strand notation (5' to 3'): a small letter for the sugar, then the base; units joined by * are phosphorothioate-linked, units joined directly phosphodiester-linked; [ ] holds rarer units or linkages, { } end groups; capitals alone tell only the bases. l = locked nucleic acid (LNA); [5mC] = 5-methylcytosine; d = 2'-deoxy (DNA)

Columns and labels:
miR-122a [1] = test: Melting temperature (Tm) of LNA anti-miR/miR-122a RNA duplex; assay type: physicochemical, human; conditions: for Tm (° C.): Table 2, towards synthetic miR-122a RNA oligonucleotide with phosphorothioate linkages, PS backbone; for Tm, oligo to miR-122 RNA complement: miR-122a
Protocol: The melting temperatures were assessed towards the mature miR-122a sequence, using a synthetic miR-122a RNA oligonucleotide with phosphorothioate linkaged.
The LNA anti-miR/miR-122a oligo duplex was diluted to 3 μM in 500 μl RNase free H2O, which was then mixed with 500 μl 2× dimerization buffer (final oligo/duplex conc. 1.5 μM, 2× Tm buffer: 200 mM NaCl, 0.2 mM EDTA, 20 mM NaP, pH 7.0, DEPC treated to remove RNases). The mix was first heated to 95 degrees for 3 minutes, then allowed to cool at room temperature (RT) for 30 minutes.
Following RT incubation Tm was measured on Lambda 40 UV/VIS Spectrophotometer with peltier temperature progammer PTP6 using PE Templab software (Perkin Elmer). The temperature was ramped up from 20° C. to 95° C. and then down again to 20° C., continuously recording absorption at 260 nm. First derivative and local maximums of both the melting and annealing was used to assess melting/annealing point (Tm), both should give similar/same Tm values. For the first derivative 91 points was used to calculate the slope.

miR-122a [2] = test: miR-122a levels in mouse liver by microRNA specific qPCR; assay type: in vivo
Protocol: Total RNA was extracted from liver samples as described above and analysed for miR-122a levels by microRNA specific QPCR.
In vivo study: Ten groups of animals (female C57/BL6; 3 mice per group) were treated in the following manner. Group 1 animals were injected with 0.2 ml saline by i.p. on day 0, day 2 and day 4. Groups 2-10 were dosed by i.p. with three different conc. (25 mg/kg, 5 mg/kg and 1 mg/kg) of either LNA antimiR-122a/SEQ ID NO: 61 (group 2-4), LNA antimir-122a/SEQ ID NO: 66 (group 5-7) or LNA antimir-122a/SEQ ID NO: 63 (group 8-10); the LNA antimir-122a sequences are given in the Table 1. All three LNA antimiR-122a oligonucleotides target the liver-specific miR-122a. The doses were calculated from the Day 0 body weights of each animal.
The animals were sacrificed 48 hours after last dose (Day 6), retro-orbital blood was collected in tubes containing EDTA and the plasma fraction harvested and stored frozen −80° C. for cholesterol analysis. At sacrifice livers were dissected and one portion was cut into 5 mm cubes and immersed in 5 volumes of ice-cold RNAlater. A second portion was snap frozen in liquid nitrogen and stored for cryo-sectioning.
Total RNA was extracted from liver samples using Trizol reagent according to the manufacturer's recommendations (Invitrogen, USA) and analysed for miR-122a levels by microRNA-specific QPCR according to the manufacturer's recommendations (Ambion, USA). […]
NMRI female mice were treated with indicated doses of LNA-antimiR (SEQ ID NO: 61) along with a mismatch control (m, SEQ ID NO: 65), saline and antagomir (SPC3595) for three consecutive days and sacrificed 24 hours after last dose (as in example 11 “old design”, n=5). miR-122 levels were analyzed by qPCR and normalized to the saline treated group.
C57BL/6J female mice were fed on high fat diet for 13 weeks before the initiation of the SEQ ID NO: 63 treatment. […] Both hypercholesterolemic and normal mice were treated i.p. twice weekly with 5 mg/kg SEQ ID NO: 63 and the corresponding mismatch control for a study period of 5½ weeks. Blood samples were collected weekly and total plasma cholesterol was measured during the entire course of the study. Upon sacrificing the mice, liver and blood samples were prepared for total RNA extraction, miRNA and mRNA quantification, assessment of the serum transaminase levels, and liver histology.
The miR-122 and let-7a microRNA levels were quantified with TaqMan microRNA Assay (Applied Biosystems) following the manufacturer's instructions. The RT reaction was diluted ten times in water and subsequently used for real time PCR amplification according to the manufacturer's instructions. A two-fold cDNA dilution series from liver total RNA of a saline-treated animal or mock transfected cells cDNA reaction (using 2.5 times more total RNA than in samples) served as standard to ensure a linear range (Ct versus relative copy number) of the amplification. Applied Biosystems 7500 or 7900 real-time PCR instrument was used for amplification.

[3] = i.p. on day 0, 2 and 4 at 25, 5 and 1 mg/kg, 48 hours after last dose

Row | Substance | Tm (° C.) (miR-122a [1]) | Tm, oligo to miR-122 RNA complement (miR-122a [1]) | miR-122a inhibition (in words) (miR-122a [2]; 25 mg/kg i.v. on 3 successive days, Day 16) | miR-122a levels (in words) (miR-122a [2]; 25 mg/kg i.v. on 3 successive days, Day 23) | miR-122a inhibition compared to saline control (in words) (miR-122a [2]; 25 mg/kg i.v. on 3 successive days, sacrifice Day 9, 16 or 23) | IC50, miR-122a levels in liver (miR-122a [2]; i.v. on 3 successive days, 2.5-25 mg/kg, 24 hour after last dose) | reduction of miR-122 levels (miR-122a [2]; one week after last LNA dose) | efficacy in vivo in miR-122a silencing compared to SEQ ID NO: 61 (in words) (miR-122a [2]; [3]) | IC50, miR-122a silencing in liver (miR-122a [2]; female C57/BL6, i.p. on day 0, 2 and 4 at 25, 5 and 1 mg/kg, 48 hours after last dose) | miR-122 levels in liver after long-term treatment (in words) (miR-122a [2]; hypercholesterolemic and normal mice, 5 mg/kg i.p. twice weekly for 5½ weeks)
1 | 5′-ccAttGtcAcaCtcCa-3′ (antisense CCATTGTCACACTCCA; sugars from the 5' end ddlddlddlddlddld, backbone and methylation of C not given here) [SEQ ID NO: 61] | 69 °C | 69 °C | inhibition could still be detected | approached those of the saline group | two-fold inhibition | 3 to 5 mg/kg | 50% | – | – | –
2 | 5′-AttGTcaCaCtCC-3′ (antisense lA*dT*dT*lG*lT*dC*dA*l[5mC]*dA*l[5mC]*dT*l[5mC]*l[5mC]) [SEQ ID NO: 66] | – | 74 °C | – | – | – | – | – | significantly improved efficacy in vivo | – | –
3 | 5′-CcAttGTcaCaCtCC-3′ (antisense CCATTGTCACACTCC; sugars from the 5' end ldlddllddldldll, backbone and methylation of C not given here) [SEQ ID NO: 63] | 78 °C | 79 °C | – | – | – | – | – | most potent | ~1 mg/kg | comparable profile in both hypercholesterolemic and normal mice
